Data published in PubChem BioAssay AID248 (DTP/NCI, 2004).
Toxic doses and inconclusive results are not listed. Rule as the data show it: active = T/C of 150% or more; inactive = T/C below 125%.

Test system: L1210 leukemia ip in BDF1 mice, survival T/C
Assay: NCI In Vivo Anticancer Drug Screen. Data for tumor model L1210 Leukemia (intraperitoneal) in B6D2F1 (BDF1) mice
Settings: endpoint: mean survival time, higher = longer survival
Outline: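 Value reflects the ratio of survival in compound-treated mice to survival in vehicle-treated controls, with both groups carrying the same transplanted tumor.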

[1] = dose: 50.0 mg/kg/injection, schedule: Q01DX009 (ip), vehicle: saline
[2] = dose: 100.0 mg/kg/injection, schedule: Q01DX009 (ip), vehicle: saline
[3] = dose: 100.0 mg/kg/injection, schedule: Q04DX003 (ip), vehicle: saline
[4] = dose: 200.0 mg/kg/injection, schedule: Q04DX003 (ip), vehicle: saline

Measured: T/C

CN1CCC=C(C(=O)N2c3ccccc3CCc3ccccc32)C1
inactive: [1] 107 % of control | [2] 95 % of control | [3] 103 % of control | [4] 92 % of control

COC(=O)/C=C/c1c[nH]c2nccnc12
inactive: dose: 100.0 mg/kg/injection, schedule: Q01DX009 (ip), vehicle: water 98 % of control | dose: 100.0 mg/kg/injection, schedule: Q04DX003 (ip), vehicle: water 101 % of control | dose: 200.0 mg/kg/injection, schedule: Q01DX009 (ip), vehicle: water 95 % of control | dose: 200.0 mg/kg/injection, schedule: Q04DX003 (ip), vehicle: water 98 % of control | dose: 400.0 mg/kg/injection, schedule: Q01DX009 (ip), vehicle: water 97 % of control | dose: 400.0 mg/kg/injection, schedule: Q04DX003 (ip), vehicle: water 102 % of control

CCc1ccc(C2=C(Cl)C(=O)C(c3ccc(CC)cc3)=C(Cl)C2=O)cc1
inactive: dose: 10.0 mg/kg/injection, schedule: Q01DX001 (ip), vehicle: carboxymethylcellulose (CMC) 100 % of control | dose: 20.0 mg/kg/injection, schedule: Q01DX001 (ip), vehicle: carboxymethylcellulose (CMC) 100 % of control | dose: 40.0 mg/kg/injection, schedule: Q01DX001 (ip), vehicle: carboxymethylcellulose (CMC) 102 % of control | dose: 80.0 mg/kg/injection, schedule: Q01DX001 (ip), vehicle: carboxymethylcellulose (CMC) 100 % of control | dose: 100.0 mg/kg/injection, schedule: Q01DX001 (ip), vehicle: carboxymethylcellulose (CMC) 88 % of control

Cc1c(C(=O)O)c(-c2ccc([N+](=O)[O-])cc2)c(C=O)n1-c1ccccc1
inactive: dose: 100.0 mg/kg/injection, schedule: Q04DX002 (ip), vehicle: Klucel (hydroxypropylcellulose) (HPC) 91 % of control | dose: 200.0 mg/kg/injection, schedule: Q04DX002 (ip), vehicle: Klucel (hydroxypropylcellulose) (HPC) 97 % of control | dose: 400.0 mg/kg/injection, schedule: Q04DX002 (ip), vehicle: Klucel (hydroxypropylcellulose) (HPC) 102 % of control

CCCN(C(=O)N([Si](C)(C)C)S(=O)(=O)c1ccc(Cl)cc1)[Si](C)(C)C
inactive: [1] 103 % of control | [2] 96 % of control

COC1OC(CN(CCCl)C(C)=O)C2OC(C)(C)OC12 (centres undefined)
inactive: dose: 50.0 mg/kg/injection, schedule: Q04DX003 (ip), vehicle: saline 96 % of control | [3] 94 % of control | [4] 92 % of control | dose: 400.0 mg/kg/injection, schedule: Q04DX003 (ip), vehicle: saline 100 % of control

Cn1cnc(N)c1/C(N)=N/O
inactive: dose: 6.25 mg/kg/injection, schedule: Q01DX005 (ip), vehicle: saline 100 % of control | dose: 12.5 mg/kg/injection, schedule: Q01DX005 (ip), vehicle: saline 98 % of control | dose: 25.0 mg/kg/injection, schedule: Q01DX005 (ip), vehicle: saline 107 % of control | dose: 50.0 mg/kg/injection, schedule: Q01DX005 (ip), vehicle: saline 91 % of control

Oc1ccccc1C=NCC[N-]CCN=Cc1ccccc1O.[Cu+]
inactive: dose: 1.56 mg/kg/injection, schedule: Q01DX009 (ip), vehicle: Klucel (hydroxypropylcellulose) (HPC) 91 % of control | dose: 1.56 mg/kg/injection, schedule: Q04DX003 (ip), vehicle: Klucel (hydroxypropylcellulose) (HPC) 95 % of control | dose: 3.13 mg/kg/injection, schedule: Q01DX009 (ip), vehicle: Klucel (hydroxypropylcellulose) (HPC) 94 % of control | dose: 3.13 mg/kg/injection, schedule: Q04DX003 (ip), vehicle: Klucel (hydroxypropylcellulose) (HPC) 93 % of control | dose: 6.25 mg/kg/injection, schedule: Q01DX009 (ip), vehicle: Klucel (hydroxypropylcellulose) (HPC) 94 % of control | dose: 6.25 mg/kg/injection, schedule: Q04DX003 (ip), vehicle: Klucel (hydroxypropylcellulose) (HPC) 97 % of control
